Data on five substances can be found in patent publication US9833497B2, “Human originated EGF domain proteins and use of the same” (CHENGDU SOURCEBIO LIMITED-LIABILITY COMPANY, priority 2013, dated 2017).

Common to all, as to format: cell-based
One assay deals with E. coli DH5α. The assay can be described thus: Antibacterial activity: MIC and growth curve against E. coli DH5α in 96-well plate. The following applies: minimal inhibitory concentration against E. coli DH5α; 96-well plate, 5×10^5 CFU/mL, 37° C., judged after 8 h. The procedure, abridged: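 Log-phase bacteria (OD600 ~0.5) resuspended in LB at 5×10^5 CFU/mL, exposed to recombinant protein at 50, 25, 12.5 μg/mL final in triplicate, 37 °C shaking at 175 rpm. OD600 read every 30 min; MIC is lowest concentration showing no growth.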

Another assay deals with E. coli BL21. Kind of assay: MIC against Gram-negative bacteria: E. coli BL21. The procedure, abridged:
(§1)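 Read-out is absence of bacterial growth, with MIC set at the lowest recombinant protein concentration achieving it. Bacteria, pre-grown in LB to McFarland 0.5 and resuspended, were exposed at 5×10^5 CFU/mL to two-fold diluted human EGF domain proteins in triplicate at 37° C, 175 rpm.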

The subject of a further assay is Pseudomonas aeruginosa. Kind of assay: MIC against Gram-negative bacteria: Pseudomonas aeruginosa. Put shortly: as §1
In the next assay the test system is Klebsiella pneumonia. The assay can be described thus: MIC against Gram-negative bacteria: Klebsiella pneumonia. The procedure, abridged: as §1
Another assay has as its system Enterobacter cloacae. Kind of assay: MIC against Gram-negative bacteria: Enterobacter cloacae. The procedure, abridged:
as §1

The next assay has as its system Aeromonas hydrophila. The assay can be described thus: MIC against Gram-negative bacteria: Aeromonas hydrophila. The procedure, abridged: as §1
The next assay deals with Citrobacter diversus. The assay can be described thus: MIC against Gram-negative bacteria: Citrobacter diversus. Put shortly:
as §1

The test system of the next assay is Moraxella catarrhalis. Kind of assay: MIC against Gram-negative bacteria: Moraxella catarrhalis. Put shortly:
as §1

Another assay relates to Proteus mirabilis. Kind of assay: MIC against Gram-negative bacteria: Proteus mirabilis. The procedure, abridged:
as §1

For a further assay, the system named is Proteus vulgaris. Kind of assay: MIC against Gram-negative bacteria: Proteus vulgaris. The procedure, abridged: as §1
The next assay relates to Serratia marcescens. The assay can be described thus: MIC against Gram-negative bacteria: Serratia marcescens. The procedure, abridged:
as §1

Where [1] appears, read: 96-well plate, 5×10^5 CFU/mL, 37° C., 10 h.
Setting [2] is: E. coli BL21, 96-well plate, 5×10^5 CFU/mL, 37° C., 10 h.
Where [3] appears, read: Pseudomonas aeruginosa, 96-well plate, 5×10^5 CFU/mL, 37° C., 10 h.
Where [4] appears, read: Klebsiella pneumonia, 96-well plate, 5×10^5 CFU/mL, 37° C., 10 h.
Where [5] appears, read: Enterobacter cloacae, 96-well plate, 5×10^5 CFU/mL, 37° C., 10 h.
Setting [6] is: Aeromonas hydrophila, 96-well plate, 5×10^5 CFU/mL, 37° C., 10 h.
The mark [7] stands for this setting: Citrobacter diversus, 96-well plate, 5×10^5 CFU/mL, 37° C., 10 h.
Setting [8] is: Moraxella catarrhalis, 96-well plate, 5×10^5 CFU/mL, 37° C., 10 h.
The mark [9] stands for this setting: Proteus mirabilis, 96-well plate, 5×10^5 CFU/mL, 37° C., 10 h.
Where [10] appears, read: Proteus vulgaris, 96-well plate, 5×10^5 CFU/mL, 37° C., 10 h.
Where [11] appears, read: Serratia marcescens, 96-well plate, 5×10^5 CFU/mL, 37° C., 10 h.

“PRT621 (CQCNNNVDPSASGNCDRLTGRCLKCIHNTAGIYCDQCKAGYFGDPLAPNPADKCRA; listed as Homo sapiens)”: the MIC with E. coli DH5α came to 50 µg/mL. Further, the “MIC E. coli BL21” value in the assay on E. coli BL21 (setting [1]) came to 25 µg/mL. Moreover, the “MIC P. aeruginosa” value with Pseudomonas aeruginosa (setting [1]) turned out to be 50 µg/mL. The “MIC K. pneumonia” value with Klebsiella pneumonia (setting [1]) was determined as 25 µg/mL. Also, the “MIC E. cloacae” value in the assay with Enterobacter cloacae (setting [1]) is 50 µg/mL. Besides, the “MIC A. hydrophila” value against Aeromonas hydrophila (setting [1]) was determined as 25 µg/mL. In addition, the “MIC C. diversus” value in the assay on Citrobacter diversus (setting [1]) was 50 µg/mL. Further, in the assay with Moraxella catarrhalis (setting [1]), the “MIC M. catarrhalis” value was found to be 25 µg/mL. In addition, in the assay on Proteus mirabilis (setting [1]), the “MIC P. mirabilis” value was determined as 50 µg/mL. Besides, the “MIC P. vulgaris” value in the assay with Proteus vulgaris (setting [1]) is 25 µg/mL. The “MIC S. marcescens” value with Serratia marcescens (setting [1]) is 50 µg/mL.

In the assay with E. coli DH5α, “PRT1294 (DFDDCQDNKCKNGAHCTDAVNGYTCICPEGYSGLFCE; listed as Homo sapiens)” displayed an MIC of 50 µg/mL. In addition, the “MIC against E. coli BL21” value against E. coli BL21 (setting [2]) stood at 12.5 µg/mL. The “MIC against P. aeruginosa” value with Pseudomonas aeruginosa (setting [3]) was found to be 50 µg/mL. The “MIC against K. pneumonia” value against Klebsiella pneumonia (setting [4]) stood at 12.5 µg/mL. For the same substance, in the assay with Enterobacter cloacae (setting [5]), the “MIC against E. cloacae” value stood at 50 µg/mL. Besides, in the assay on Aeromonas hydrophila (setting [6]), the “MIC against A. hydrophila” value was 12.5 µg/mL. Further, the “MIC against C. diversus” value against Citrobacter diversus (setting [7]) worked out at 50 µg/mL. The “MIC against M. catarrhalis” value against Moraxella catarrhalis (setting [8]) stood at 12.5 µg/mL. Moreover, the “MIC against P. mirabilis” value in the assay with Proteus mirabilis (setting [9]) stood at 50 µg/mL. For the same substance, the “MIC against P. vulgaris” value in the assay on Proteus vulgaris (setting [10]) is 12.5 µg/mL. In addition, in the assay on Serratia marcescens (setting [11]), the “MIC against S. marcescens” value came out at 50 µg/mL.

In the case of “PRT1012 (APKGCGPPSPCLYNGSCSETTGLGGPGFRCSCPHSSPGPRCQ; listed as Homo sapiens)”, the MIC in the assay on E. coli DH5α came to 12.5 µg/mL; against E. coli BL21 (E. coli BL21, 10 h cultivation at 37° C.) it was 50 µg/mL; against Pseudomonas aeruginosa (P. aeruginosa, 10 h cultivation at 37° C.), 12.5 µg/mL; with Klebsiella pneumonia (K. pneumonia, 10 h cultivation at 37° C.), 12.5 µg/mL; with Enterobacter cloacae (E. cloacae, 10 h cultivation at 37° C.) it was 50 µg/mL; with Aeromonas hydrophila (A. hydrophila, 10 h cultivation at 37° C.), 12.5 µg/mL. The minimal inhibitory concentration (MIC) is 50 µg/mL against Citrobacter diversus (C. diversus, 10 h cultivation at 37° C.); 12.5 µg/mL in the assay with Moraxella catarrhalis (M. catarrhalis, 10 h cultivation at 37° C.); 12.5 µg/mL with Proteus mirabilis (P. mirabilis, 10 h cultivation at 37° C.); 25 µg/mL with Proteus vulgaris (P. vulgaris, 10 h cultivation at 37° C.); 12.5 µg/mL against Serratia marcescens (S. marcescens, 10 h cultivation at 37° C.).

Consider “PRT40 (KGIDCSDGFNGGCEQLCLQQTLPLPYDATSSTIFMFCGCVEEYKLAPDGKSCL; listed as Homo sapiens)”, for which the MIC with E. coli DH5α is 25 µg/mL. In the assay on E. coli BL21 (setting [2]), the “MIC (μg/mL) E. coli BL21” value turned out to be 12.5 µg/mL. Also, the “MIC (μg/mL) P. aeruginosa” value against Pseudomonas aeruginosa (setting [3]) is 25 µg/mL. In the assay with Klebsiella pneumonia (setting [4]), the “MIC (μg/mL) K. pneumonia” value was determined as 12.5 µg/mL. In the assay with Enterobacter cloacae (setting [5]), the “MIC (μg/mL) E. cloacae” value came out at 25 µg/mL. Further, the “MIC (μg/mL) A. hydrophila” value in the assay on Aeromonas hydrophila (setting [6]) is 50 µg/mL. Besides, the “MIC (μg/mL) C. diversus” value against Citrobacter diversus (setting [7]) was found to be 25 µg/mL. The “MIC (μg/mL) M. catarrhalis” value against Moraxella catarrhalis (setting [8]) was found to be 12.5 µg/mL. The “MIC (μg/mL) P. mirabilis” value with Proteus mirabilis (setting [9]) worked out at 12.5 µg/mL. For the same substance, in the assay with Proteus vulgaris (setting [10]), the “MIC (μg/mL) P. vulgaris” value is 25 µg/mL. Further, in the assay with Serratia marcescens (setting [11]), the “MIC (μg/mL) S. marcescens” value is 12.5 µg/mL.

On to “PRT640 (DMDECQDPSSCIDGQCVNTEGSYNCFCTHPMVLDASE; listed as Homo sapiens)”, for which, in the assay with E. coli DH5α, the MIC was 12.5 µg/mL. Besides, the “MIC E. coli BL21” value in the assay with E. coli BL21 (setting [1]) stood at 25 µg/mL. The “MIC P. aeruginosa” value against Pseudomonas aeruginosa (setting [1]) is 50 µg/mL. Further, in the assay on Klebsiella pneumonia (setting [1]), the “MIC K. pneumonia” value is 12.5 µg/mL. Besides, in the assay with Enterobacter cloacae (setting [1]), the “MIC E. cloacae” value is 25 µg/mL. Further, in the assay on Aeromonas hydrophila (setting [1]), the “MIC A. hydrophila” value came to 50 µg/mL. In the assay with Citrobacter diversus (setting [1]), the “MIC C. diversus” value was determined as 12.5 µg/mL. For the same substance, in the assay on Moraxella catarrhalis (setting [1]), the “MIC M. catarrhalis” value is 25 µg/mL. Also, the “MIC P. mirabilis” value in the assay with Proteus mirabilis (setting [1]) was 50 µg/mL. Moreover, the “MIC P. vulgaris” value in the assay with Proteus vulgaris (setting [1]) is 12.5 µg/mL. Further, the “MIC S. marcescens” value in the assay on Serratia marcescens (setting [1]) is 25 µg/mL.
